Measured values: the supplement of paper PMC11451515

Test system: NOMO1
Assay: cell viability relative to DMSO control; higher = less cytotoxic
Details: 48 h
Outline: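 Before seeding, each leukemia line was adapted for at least four passages in each medium. NOMO1 or SEM cells (500 cells/well) and P12-Ichikawa cells (1000 cells/well) went into 1536-well plates at 5 μl, then received library compounds in DMSO by pin dosing across 11 threefold concentrations, 47 μM to 0.79 nM. Readout was CellTiter-Glo One luminescence after 48 h at 37°C, and viability is given as a per-plate percentage of DMSO wells, with cell-free wells as background.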

[1] = HPLM + 10% dialyzed FBS, 0.000781 µM
[2] = HPLM + 10% dialyzed FBS, 0.00234 µM
[3] = HPLM + 10% dialyzed FBS, 0.00702 µM
[4] = HPLM + 10% dialyzed FBS, 0.0211 µM
[5] = HPLM + 10% dialyzed FBS, 0.0632 µM
[6] = HPLM + 10% dialyzed FBS, 0.19 µM
[7] = HPLM + 10% dialyzed FBS, 0.569 µM
[8] = HPLM + 10% dialyzed FBS, 1.71 µM
[9] = HPLM + 10% dialyzed FBS, 5.12 µM
[10] = HPLM + 10% dialyzed FBS, 15.4 µM
[11] = HPLM + 10% dialyzed FBS, 46.1 µM
[12] = RPMI 5 mM glucose + 10% FBS, 0.000781 µM
[13] = RPMI 5 mM glucose + 10% FBS, 0.00234 µM
[14] = RPMI 5 mM glucose + 10% FBS, 0.00702 µM
[15] = RPMI 5 mM glucose + 10% FBS, 0.0211 µM
[16] = RPMI 5 mM glucose + 10% FBS, 0.0632 µM
[17] = RPMI 5 mM glucose + 10% FBS, 0.19 µM
[18] = RPMI 5 mM glucose + 10% FBS, 0.569 µM
[19] = RPMI 5 mM glucose + 10% FBS, 1.71 µM
[20] = RPMI 5 mM glucose + 10% FBS, 5.12 µM
[21] = RPMI 5 mM glucose + 10% FBS, 15.4 µM
[22] = RPMI 5 mM glucose + 10% FBS, 46.1 µM
[23] = RPMI 5 mM glucose + 10% dialyzed FBS, 0.000781 µM
[24] = RPMI 5 mM glucose + 10% dialyzed FBS, 0.00234 µM
[25] = RPMI 5 mM glucose + 10% dialyzed FBS, 0.00702 µM
[26] = RPMI 5 mM glucose + 10% dialyzed FBS, 0.0211 µM
[27] = RPMI 5 mM glucose + 10% dialyzed FBS, 0.0632 µM
[28] = RPMI 5 mM glucose + 10% dialyzed FBS, 0.19 µM
[29] = RPMI 5 mM glucose + 10% dialyzed FBS, 0.569 µM
[30] = RPMI 5 mM glucose + 10% dialyzed FBS, 1.71 µM
[31] = RPMI 5 mM glucose + 10% dialyzed FBS, 5.12 µM
[32] = RPMI 5 mM glucose + 10% dialyzed FBS, 15.4 µM
[33] = RPMI 5 mM glucose + 10% dialyzed FBS, 46.1 µM

Structure (SMILES)	cell viability [1] [%]	cell viability [2] [%]	cell viability [3] [%]	cell viability [4] [%]	cell viability [5] [%]	cell viability [6] [%]	cell viability [7] [%]	cell viability [8] [%]	cell viability [9] [%]	cell viability [10] [%]	cell viability [11] [%]	cell viability [12] [%]	cell viability [13] [%]	cell viability [14] [%]	cell viability [15] [%]	cell viability [16] [%]	cell viability [17] [%]	cell viability [18] [%]	cell viability [19] [%]	cell viability [20] [%]	cell viability [21] [%]	cell viability [22] [%]	cell viability [23] [%]	cell viability [24] [%]	cell viability [25] [%]	cell viability [26] [%]	cell viability [27] [%]	cell viability [28] [%]	cell viability [29] [%]	cell viability [30] [%]	cell viability [31] [%]	cell viability [32] [%]	cell viability [33] [%]
CCNC(=O)C[C@@H]1\N=C(C2=CC=C(Cl)C=C2)/C3=C(C=CC(=C3)OC)[N]4C(=NN=C14)C	121	130	123	121	114	120	107	84.8	68.5	29	15	108	118	103	114	121	105	104	90.2	76.1	26.7	6.87	106	116	117	109	114	112	98	89.7	72.4	28.4	9.69
O=C(Nc1ccc(OC(F)(F)F)cc1)c1sccc1NCc1ccnc2ccccc12	118	109	127	123	109	110	80.1	43.1	33.4	33.8	41.4	118	101	117	121	112	105	108	96	52.8	22.6	25.3	105	106	113	117	107	109	116	91.6	57	28	36.1
Cl.c1cnc2cc3c(cc2n1)C1CNCC3C1	107	109	110	103	129	126	135	124	124	122	92	101	105	113	107	112	110	118	104	111	110	79.4	99.3	98.2	105	114	107	121	116	109	103	108	62.8
COC1=CC=C2Nc3cc(Cl)ccc3C(N=C3C=C(CN4CCCC4)C(=O)C(CN4CCCC4)=C3)=C2N1	–	–	–	–	–	–	–	–	–	–	–	105	103	120	110	133	127	125	135	116	119	119	–	–	–	–	–	–	–	–	–	–	–
COC[C@H](NC(=O)c1cnc(C)s1)C(=O)N[C@@H](COC)C(=O)N[C@@H](Cc1ccccc1)C(=O)[C@@]1(C)CO1	105	106	111	107	97.2	83.5	23.5	6.64	1.03	0.172	1.92	98.6	108	92.9	94.3	93.6	98.1	28.1	6.29	1.06	0.581	1.29	98.8	98.1	97.6	96.7	98.3	88.1	30.2	5.68	2.49	0.98	1.62
